Reference: patent EP0099122A2, “Compositions comprising pepstatin and an histamine H2-receptor antagonist having an enhanced antiulcer activity” (Bristol-Myers Company, priority 1982, dated 1984)

System: HCl-Induced Formation of Gastric Lesions
Experiment: HCl-induced gastric erosions in rats (modified method of Robert et al.)
Type: in vivo, Long Evans rats
Details: for enhancement of the inhibitory effect by pepstatin: plus 20 mg/kg pepstatin
Procedure: In the tests described below, gastric erosions produced in rats by the oral instillation of 1.0 mL of 0.75N HC1 were compared with those in rats which had been pretreated with the most preferred compound of Formula I (of Example 1) or with that compound and pepstatin. Comparison tests utilizing pretreatment with the newer commercial product, ranitidine, and with ranitidine and pepstatin, are also shown. Ranitidine is about 4 and 6 times as potent as cimetidine as an inhibitor of gastric acid secretion by the oral route in the rat and dog, respectively.
A modification of the method of Robert et al., [Gastroenterology, 77, 433-443 (1979)] was employed to produce gastric erosions. Adult male, Long Evans rats weighing 280-300 g (Blue Spruce Farms, Alton, New York) were used. The animals were individually caged and food and water were removed 24 and 18 hours, respectively, prior to testing. On the following day, the test compound was administered orally to the animals 30 minutes before 1.0 mL of 0.75N HC1 was instilled into the stomach by gavage. Animals treated with the combination of the test compound and pepstatin received the test compound 30 minutes before, and a fixed amount of pepstatin (20 mg/kg po) 10 minutes before, the hydrochloric acid was administered. […] One hour after receiving the HC1 solution, the animals were sacrificed with an intraperitoneal injection of 0.2 mL of T-61®, a euthanasia solution (National Laboratories Corp.).
The stomachs were removed from the animals, cut along the greater curvature, opened, rinsed with saline and pinned out flat in a standard position for macroscopic examination and scoring of erosions. The stomachs were photographed with a Polaroid® Close Up camera (Polaroid Corporation) and scoring was determined from the photographs. For scoring purposes, only those erosions with a minimum length of 1 mm were considered. The severity of gastric ulceration was defined for each animal as the sum of the maximum continuous lengths (in mm) of the erosions satisfying the above criteria. Percent inhibition of lesion formation was defined as
(mm erosion, vehicle control') - (mm erosion, test agent) 100. (mm erosion, vehicle control)
Data were analyzed using the t-test for unpaired data' and ED50 values were calculated from the dose response data using probit analysis [Finney, Probit Analysis, 3rd ed., University Press, Cambridge, England (1971)].
The compound of Example 1 and ranitidine (synthesized by the Medicinal Chemistry Research Department of Bristol Laboratories, Division of.Bristol-Myers Company) were dissolved in one equivalent of HC1 and the pH adjusted to 5.5 with NaOH. A suspension of pepstatin (Banyu Pharmaceutical Co. Ltd.) in water was made by homogenizing the compound with a few drops of Tween-80® (Atlas Chemical Industries). Each of these compounds were administered orally by gavage in a volume of 2 mL/kg.

In the case of `Nc1c(NCCCOc2cccc(CN3CCCCC3)c2)c(=O)c1=O` [Example 1], the “Potency Ratio” value (compound alone versus compound plus pepstatin (20 mg/kg po)) is reported as 3.5, the “enhancement of the inhibitory effect by pepstatin” value (Example 1 at 25 mg/kg) is reported as “the difference was not statistically significant” and the “enhancement of the inhibitory effect by pepstatin” value (Example 1 at 50 and 75 mg/kg, ranitidine at 25-100 mg/kg) is reported as “significantly enhanced the inhibitory effect”. For the same compound, the “formation of gastric erosions” value (pretreatment po, compound alone, Example 1 at 25, 50 or 75 mg/kg, ranitidine at 25, 50, 75 or 100 mg/kg) was “decreased the formation of gastric erosions in a dose-related manner”, the ED50 (rat, compound po 30 min before 1.0 mL 0.75N HCl, compound alone, probit analysis, read-out: ED50 (mg/kg) for Inhibition of Ulcer Formation, Alone) was 115 mg/kg and the “ED50 (mg/kg) for Inhibition of Ulcer Formation, with Pepstatin” value (rat, compound po 30 min before and pepstatin 20 mg/kg po 10 min before 1.0 mL 0.75N HCl) was 33 mg/kg.
